The values that follow come from US5688787A, “Substituted β-lactam compounds useful as hypochlesterolemic agents and processes for the preparation thereof” (priority 1996, dated 1997).

Where two headings read alike, the source gives them in different places.

The test concerns Hyperlipidemic Hamster. In words: In Vivo Assay of Hypolipidemic Agents Using the Hyperlipidemic Hamster. To be noted: Mesocricetus auratus, po, 168 h, 7 days, percent change versus control, negative = lowering; for change in vivo at 50 mg/kg: 50 mg/kg once daily oral; for change in vivo at 3 mg/kg: 3 mg/kg once daily oral; for change in vivo at 10 mg/kg: 10 mg/kg once daily oral; for change in vivo at 40 mg/kg: 40 mg/kg once daily oral. The procedure:
In Vivo Assay of Hypolipidemic Agents Using the Hyperlipidemic Hamster
Hamsters are separated into groups of six and given a controlled cholesterol diet (Purina Chow #5001 containing 0.5% cholesterol) for seven days. Diet consumption is monitored to determine dietary cholesterol exposure in the face of test compounds. The animals are dosed with the test compound once daily beginning with the initiation of diet. Dosing is by oral gavage of 0.2mL of corn oil alone (control group) or solution (or suspension) of test compound in corn oil. All animals roodbund or in poor physical condition are euthanized. After seven days, the animals are anesthetized by IM injection of ketamine and sacrificed by decapitation. Blood is collected into vacutainer tubes containing EDTA for plasma lipid analysis and the liver excised for tissue lipid analysis. Data is reported as percent reduction of lipid versus control.
Using the test procedures described above, the following in vitro and in vivo data were obtained for the preferred compounds, which are referred to in the following table by the corresponding example numbers. For the in vitro ACAT data, negative percent inhibition denotes apparent stimulation,while positive numbers denote inhibition. For the in vivo results, data is reported as percent change versus control, therefore, negative numbers indicate a positive lipid-lowering effect.

[1] abbreviates: read-out: % Reduction (in vivo) Cholest. Esters.
The mark [2] stands for this setting: read-out: % Reduction (in vivo) Serum Cholest.

As for `COc1ccc(C(=O)[C@@H]2[C@@H](CCCc3ccccc3)C(=O)N2c2ccc(OC)cc2)cc1` (relative stereo) [Example 7V], the change in vivo at 50 mg/kg runs as follows: under setting [1], 0%; under setting [2], 0%.
Consider `COc1ccc(C(=O)[C@@H]2[C@H](CCCc3ccccc3)C(=O)N2c2ccc(OC)cc2)cc1` (relative stereo) [Example 7W], for which the change in vivo at 50 mg/kg reads like this: under setting [1], 0%; under setting [2], 12%.
For `COc1ccc(N2C(=O)[C@H](CCCc3ccccc3)[C@H]2c2ccc(OC)cc2OC)cc1` (relative stereo) [Example 7X], the change in vivo at 50 mg/kg is -78% under setting [1] and -26% under setting [2].
For the molecule `CCOc1ccc([C@@H]2[C@@H](CCCc3ccccc3)C(=O)N2c2ccccc2)cc1` (relative stereo) [Example 7Y], under setting [1], the change in vivo at 3 mg/kg is -55%, the change in vivo at 10 mg/kg is -79% and the change in vivo at 50 mg/kg is -94%. Further, under setting [2], the change in vivo at 3 mg/kg was -22%, the change in vivo at 10 mg/kg was -27% and the change in vivo at 50 mg/kg was -53%.
`COc1ccc([C@@H]2[C@@H](CCCc3ccc([N+](=O)[O-])cc3)C(=O)N2c2ccc(OC)cc2)cc1` (relative stereo) [Example 7Z]: the change in vivo at 50 mg/kg was -39% under setting [1] and -21% under setting [2].
As to `COc1ccc([C@@H]2[C@@H](CCCc3ccccc3)C(=O)N2c2ccccc2)cc1` (relative stereo) [Example 7], under setting [1], the change in vivo at 3 mg/kg is -50%, the change in vivo at 10 mg/kg was -89.5% and the change in vivo at 40 mg/kg was -95%. Moreover, under setting [2], the change in vivo at 3 mg/kg is -30%, the change in vivo at 10 mg/kg is -41% and the change in vivo at 40 mg/kg is -49%.
Turning to `COc1ccc([C@@H]2[C@@H](CCCc3ccc(N)cc3)C(=O)N2c2ccc(OC)cc2)cc1` (relative stereo) [Example 8E], the change in vivo at 50 mg/kg under setting [1] was -32% and the change in vivo at 50 mg/kg under setting [2] is 0%.
Consider `COc1ccc([C@@H]2[C@H](N)C(=O)N2c2ccccc2)cc1` (relative stereo) [Example 11], for which the change in vivo at 50 mg/kg runs as follows: under setting [1], 0%; under setting [2], -8%.
With `CCC(=O)N[C@@H]1C(=O)N(c2ccccc2)[C@@H]1c1ccc(OC)cc1` (relative stereo) [Example 12A], the change in vivo at 50 mg/kg was -39% under setting [1] and -14% under setting [2].
For the molecule `COc1ccc([C@@H]2[C@H](NC(=O)COc3ccccc3)C(=O)N2c2ccccc2)cc1` (relative stereo) [Example 12B], the change in vivo at 50 mg/kg under setting [1] was -26% and the change in vivo at 50 mg/kg under setting [2] was 0%.
`COc1ccc([C@@H]2[C@H](NC(=O)OCc3ccccc3)C(=O)N2c2ccccc2)cc1` (relative stereo) [Example 12C]: the change in vivo at 50 mg/kg reads like this: under setting [1], 0%; under setting [2], 0%.
Take `COc1ccc([C@@H]2[C@H](NC(=O)N(C)c3ccccc3)C(=O)N2c2ccccc2)cc1` (relative stereo) [Example 12D]: the change in vivo at 50 mg/kg runs as follows: under setting [1], 0%; under setting [2], 0%.
As for `COc1ccc([C@@H]2[C@H](NC(=O)Cc3ccccc3)C(=O)N2c2ccccc2)cc1` (relative stereo) [Example 12], the change in vivo at 50 mg/kg is 0% under setting [1] and -12% under setting [2].
`COc1ccc([C@@H]2[C@H](NS(=O)(=O)c3ccc(C)cc3)C(=O)N2c2ccccc2)cc1` (relative stereo) [Example 13]: the change in vivo at 50 mg/kg reads like this: under setting [1], 0%; under setting [2], -18%.
For `COc1ccc(CN[C@@H]2C(=O)N(c3ccccc3)[C@@H]2c2ccc(OC)cc2)cc1` (relative stereo) [Example 14A], the change in vivo at 50 mg/kg is -78% under setting [1] and 31% under setting [2].
As for `COc1ccc([C@@H]2[C@H](NCC(c3ccccc3)c3ccccc3)C(=O)N2c2ccccc2)cc1` (relative stereo) [Example 14B], the change in vivo at 50 mg/kg reads like this: under setting [1], 0%; under setting [2], 0%.
As for `COc1ccc([C@@H]2[C@H](NCCCC3CCCCC3)C(=O)N2c2ccccc2)cc1` (relative stereo) [Example 14C], the change in vivo at 50 mg/kg was found to be 0% under setting [1] and 0% under setting [2].
For the molecule `COc1ccc([C@@H]2[C@H](NCCc3ccccc3)C(=O)N2c2ccccc2)cc1` (relative stereo) [Example 14], the change in vivo at 50 mg/kg by setting is: under setting [1], -87%; under setting [2], 30%.
Regarding `COc1ccc([C@@H]2[C@@H](CCCc3ccccc3)C(=O)N2c2ccc(S(C)(=O)=O)cc2)cc1` (relative stereo) [Example 17B], the change in vivo at 50 mg/kg reads like this: under setting [1], -39%; under setting [2], 0%.
Take `COc1ccc(N2C(=O)[C@@H](CCCc3ccccc3)[C@H]2c2ncc[nH]2)cc1` (relative stereo) [Example 18]: the change in vivo at 50 mg/kg under setting [1] is 0% and the change in vivo at 50 mg/kg under setting [2] came out at 0%.
As for `COc1ccc(N2C(=O)[C@H](CCCc3ccccc3)[C@H]2c2ccc(CN3CCN(C)CC3)cc2)cc1` (relative stereo) [Example 19C], the change in vivo at 50 mg/kg is, setting by setting: under setting [1], -46%; under setting [2], -9%.
On to `COc1ccc(NC[C@H]2[C@@H](CCCc3ccccc3)C(=O)N2c2ccc(OC)cc2)cc1` (relative stereo) [Example 19D], for which the change in vivo at 50 mg/kg under setting [1] was -18% and the change in vivo at 50 mg/kg under setting [2] was -15%.
For the molecule `COc1ccc(N2C(=O)[C@H](CCCc3ccccc3)[C@@H]2CN2CCOCC2)cc1` (relative stereo) [Example 19E], the change in vivo at 50 mg/kg by setting is: under setting [1], -30%; under setting [2], -19%.
The matching figures for `COc1ccc(N2C(=O)[C@H](CCCc3ccccc3)[C@H]2c2cc[n+]([O-])cc2)cc1` (relative stereo) [Example 20]: 0% and 12%.
The matching figures for `COCc1ccc([C@H]2[C@@H](CCCc3ccccc3)C(=O)N2c2ccc(OC)cc2)cc1` (relative stereo) [Example 21A]: -25% and 0%.
The matching figures for `COCc1ccc([C@@H]2[C@@H](CCCc3ccccc3)C(=O)N2c2ccc(OC)cc2)cc1` (relative stereo) [Example 21]: -56% and -27%.
Consider `COc1ccc(N2C(=O)[C@H](CCCc3ccccc3)[C@@H]2c2ccc(C(=O)O)cc2)cc1` (relative stereo) [Example 22A], for which the change in vivo at 50 mg/kg under setting [1] is -22% and the change in vivo at 50 mg/kg under setting [2] is -16%.
Regarding `COc1ccc(N2C(=O)[C@@H](CCCc3ccccc3)[C@@H]2c2ccc(C(=O)O)cc2)cc1` (relative stereo) [Example 22], the change in vivo at 50 mg/kg reads like this: under setting [1], -33%; under setting [2], -17%.
Consider `COc1ccc(N2C(=O)[C@H](CCCc3ccccc3)[C@@H]2c2ccc(C(=O)N3CCOCC3)cc2)cc1` (relative stereo) [Example 23], for which the change in vivo at 50 mg/kg by setting is: under setting [1], -40%; under setting [2], -22%.
The matching figures for `CCOC(=O)c1ccc([C@@H]2[C@@H](CCCc3ccccc3)C(=O)N2c2ccc(OC)cc2)cc1` (relative stereo) [Example 24A]: -76% and -21%.
